For one series, the system named is Microsporum. Description: Minimum inhibitory concentration, Microsporum. The class given is cell-based. An excerpt: (§1) The minimum inhibitory concentrations required to inhibit different bacteria and fungal strains by Aranorosinol-A and Aranorosinol-B are given in Table I
For a further series, the system named is Bacillus subtilis. Description: Minimum inhibitory concentration, Bacillus subtilis. The class given is cell-based.
From the text: as §1

The next series deals with Saccharomyces cerevisiae. Description: Minimum inhibitory concentration, Saccharomyces cerevisiae. The series is classed as cell-based.
From the text: as §1

The test system of another series is E. coli Ess 2231. Nature of the series: Minimum inhibitory concentration, E. coli Ess 2231. The series is classed as cell-based. The following applies: Escherichia coli, ESS2231.
From the text: as §1

For series [1], the system named is Staphylococcus aureus 209 P. Nature of the series: Minimum inhibitory concentration, Staphylococcus aureus 209 P. The series is classed as cell-based.
From the text: as §1

The next series relates to E. coli 9632. Nature of the series: Minimum inhibitory concentration, E. coli 9632. The series is classed as cell-based. The following applies: Escherichia coli.
From the text: as §1

The subject of another series is Klebsiella pneumoniae. Nature of the series: Minimum inhibitory concentration, Klebsiella pneumoniae. The series is classed as cell-based.
From the text: as §1

The test system of the next series is Salmonella typhimurium. Description: Minimum inhibitory concentration, Salmonella typhimurium. The series is classed as cell-based. The following applies: Salmonella enterica.
From the text: as §1

The subject of series [2] is Staphylococcus aureus 20240. Description: Minimum inhibitory concentration, Staphylococcus aureus 20240. The class given is cell-based.
From the text: as §1

A further series concerns Streptococcus faecalis. Description: Minimum inhibitory concentration, Streptococcus faecalis. The following applies: Enterococcus faecalis. The series is classed as cell-based.
From the text: as §1

A further series has as its system Aspergillus niger. Nature of the series: Minimum inhibitory concentration, Aspergillus niger. The series is classed as cell-based.
From the text: as §1

A further series relates to Candida albicans. Nature of the series: Minimum inhibitory concentration, Candida albicans. The class given is cell-based.
From the text: as §1

For another series, the system named is Pseudomonas aeruginosa. Nature of the series: Minimum inhibitory concentration, Pseudomonas aeruginosa. The class given is cell-based.
From the text: as §1

The subject of another series is Proteus vulgaris. Nature of the series: Minimum inhibitory concentration, Proteus vulgaris. The series is classed as cell-based.
From the text: as §1

Series [3] has as its system bacteria and fungal strains. Nature of the series: Antibacterial and antifungal activity spectrum. The series is classed as cell-based. The following applies: conclusion from Table I.
From the text: as §1

Series [4] has as its system Trichophyton mentagrophytes. Nature of the series: Minimum inhibitory concentration, Trichophyton mentagrophytes. The series is classed as cell-based.
From the text: as §1

A further series in a line: Solubility. The class given is physicochemical.
Where [5] appears, read: in dichloromethane, chloroform, acetone, methanol, diethyl ether, ethyl acetate and dimethyl sulfoxide.

These results are taken from patent US5240959A, “Aranorosinol-A and aranorosinol-B produced by Pseudoarachniotus roseus” (Hoechst Aktiengesellschaft, priority 1991, dated 1993).

≈ marks a conversion by molar mass, not a printed value.

In general, MIC refers to the smallest concentration in the dilution series that meets the test's criterion for growth inhibition. A higher MIC goes with a less susceptible organism.

`CCCCCCC(C)/C=C(C)/C=C/C(=O)NC1CC2(OC1O)C1OC1C(O)C1OC12` (stereo not drawn) [Aranorosinol-A]: the MIC is greater than 250 µg/mL against Microsporum; 3.9 µg/mL (≈ 9.25 µM) in the series on Bacillus subtilis; 31.2 µg/mL (≈ 74.1 µM) against Saccharomyces cerevisiae; 62.5 µg/mL (≈ 148 µM) in the series on E. coli Ess 2231; 15.6 µg/mL (≈ 37 µM) in [1]; greater than 250 µg/mL against E. coli 9632. In addition, the MIC against Klebsiella pneumoniae was greater than 250 µg/mL; against Salmonella typhimurium, greater than 250 µg/mL; in series [2], 31.2 µg/mL (≈ 74.1 µM); in the series with Streptococcus faecalis, 31.2 µg/mL (≈ 74.1 µM); in the series on Aspergillus niger it was greater than 250 µg/mL; against Candida albicans, 62.5 µg/mL (≈ 148 µM). Besides, the MIC was greater than 250 µg/mL with Pseudomonas aeruginosa, greater than 250 µg/mL in the series with Proteus vulgaris and 62.5 µg/mL (≈ 148 µM) in series [4]. In addition, the “activity against bacteria and fungi (in words)” value in [3] is “active against Gram-positive, Gram-negative bacteria and against yeast and filamentous fungi”. In addition, the Solubility entry in “Solubility” (setting [5]) was “soluble”; in the series “Solubility” (in n-hexane, water), “Insoluble”.

As for `CCCCCCC(C)/C=C(C)/C=C/C(=O)NC1CC2(OC1O)C1OC1C(O)(CC(C)=O)C1OC12` (stereo not drawn) [Aranorosinol-B], the MIC against Microsporum was greater than 250 µg/mL; against Bacillus subtilis, 15.6 µg/mL (≈ 32.7 µM); against Saccharomyces cerevisiae, 250 µg/mL (≈ 523 µM); in the series on E. coli Ess 2231, greater than 250 µg/mL; in [1], 31.2 µg/mL (≈ 65.4 µM); against E. coli 9632 it was greater than 250 µg/mL. Moreover, the MIC in the series with Klebsiella pneumoniae was greater than 250 µg/mL; in the series with Salmonella typhimurium it was greater than 250 µg/mL; in series [2] it was 15.6 µg/mL (≈ 32.7 µM); against Streptococcus faecalis, 125 µg/mL (≈ 262 µM); against Aspergillus niger, greater than 250 µg/mL; in the series on Candida albicans it was 250 µg/mL (≈ 523 µM). For the same compound, the MIC (against Pseudomonas aeruginosa; in the series on Proteus vulgaris; in series [4]) was greater than 250 µg/mL in each case. Moreover, in [3], the “activity against bacteria and fungi (in words)” value is on record as “active against Gram-positive bacteria only”. Besides, the Solubility entry is recorded as “soluble” in the series “Solubility” (setting [5]) and “Insoluble” in the series “Solubility” (in n-hexane, water).
